Measurements: patent US8492388B2 (priority 2008, dated 2013)

Assay: Measurement of logP values by HPLC on reversed phase columns (EEC directive 79/831 Annex V.A8)
Details: not given

Row | Compound | chromatographic logP
1 | Cn1nnnc1C(=NOCc1csc(N)n1)c1cccc(OC(F)(F)F)c1 [Example 46, 4-{[({(1-methyl-1H-tetrazol-5-yl)[3-(trifluoromethoxy)phenyl]methylene}amino)oxy]methyl}-1,3-thiazol-2-amine] | 2.1
2 | COCc1cccc(C(=O)c2nnnn2C)c1 [[3-(methoxymethyl)phenyl](1-methyl-1H-tetrazol-5-yl)methanone] | 2.01
3 | COC(=O)c1cccc(CCl)c1 [3-(chloromethyl)benzoate, methyl 3-(chloromethyl)benzoate] | 2.64
4 | COCc1cccc(C(=O)O)c1 [3-(methoxymethyl)benzoic acid] | 1.33
5 | CN(C)c1cccc(C(=NOCc2cccc(NC(=O)C(F)(F)Oc3ccccc3)n2)c2nnnn2C)c1 [Example 30, N-(6-{[({[3-(dimethylamino)phenyl](1-methyl-1H-tetrazol-5-yl)methylene}amino)oxy]methyl}pyridin-2-yl)-2,2-difluoro-2-phenoxyacetamide] | 4.14
6 | CON(C)C(=O)c1cccc(OC(F)(F)F)c1 [N-methoxy-N-methyl-3-(trifluoromethoxy)benzamide] | 2.41
7 | Cn1nnnc1C(=NOCc1csc(NC(=O)COc2ccccc2)n1)c1cccc(OC(F)(F)F)c1 [Example 53, N-(4-{[({(1-methyl-1H-tetrazol-5-yl)[3-(trifluoromethoxy)phenyl]methylene}amino)oxy]methyl}-1,3-thiazol-2-yl)-2-phenoxyacetamide] | 3.99
8 | COCc1cccc(C(=NO)c2nnnn2C)c1 [N-hydroxy-1-[3-(methoxymethyl)phenyl]-1-(1-methyl-1H-tetrazol-5-yl)methanimine] | 1.54
9 | Cn1nnnc1C(=O)c1cccc(OC(F)(F)F)c1 [(1-methyl-1H-tetrazol-5-yl)[3-(trifluoromethoxy)phenyl]methanone] | 2.96
10 | COCc1cccc(C(=NOCc2cccc(NC(=O)OC(C)(C)C)n2)c2nnnn2C)c1 [Example 32, tert-butyl (6-{[({[3-(methoxymethyl)phenyl](1-methyl-1H-tetrazol-5-yl)methylene}amino)oxy]methyl}pyridin-2-yl)carbamate] | 3.71
11 | Cn1nnnc1C(=NO)c1cccc(OC(F)(F)F)c1 [N-hydroxy-1-(1-methyl-1H-tetrazol-5-yl)-1-[3-(trifluoromethoxy)phenyl]methanimine] | 2.37
12 | COCc1cccc(C(=O)N(C)OC)c1 [N-methoxy-3-(methoxymethyl)-N-methylbenzamide] | 1.43

Same assay, conditions: HPLC reversed phase, pH 2,7, 0.1% formic acid in water / acetonitrile gradient

Row | Compound | logp
13 | CC#CCOC(=O)Nc1cccc(CON=C(c2cccc(COC)c2)c2nnnn2C)n1 [Example 33] | 3.21
14 | Cn1nnnc1C(=NOCc1cccc(N)n1)c1cccc(OC(F)(F)F)c1 [Example 5] | 1.69
15 | C=CCCOC(=O)Nc1nc(CON=C(c2cccc(SC)c2)c2nnnn2C)cs1 [Example 21] | 3.64
16 | CON(C)C(=O)Nc1cccc(CON=C(c2cccc(N(C)C)c2)c2nnnn2C)n1 [Example 31] | 2.71
17 | C=CCCOC(=O)Nc1cccc(CON=C(c2cccc(N(C)C)c2)c2nnnn2C)n1 [Example 24] | 3.64
18 | C#CCCOC(=O)Nc1cccc(CON=C(c2cccc(N(C)C)c2)c2nnnn2C)n1 [Example 23] | 3.21
19 | CCCCCOC(=O)Nc1cccc(CON=C(c2cccc(COC)c2)c2nnnn2C)n1 [Example 38] | 4.18
20 | C=CCCOC(=O)Nc1cccc(CON=C(c2cccc(OC(F)(F)F)c2)c2nnnn2C)n1 [Example 8] | 4.2

Same assay, conditions: pH 2.7

Row | Compound | chromatographic logP
21 | Cn1nnnc1C(=NOCc1csc(N)n1)c1cccc(OC(F)(F)F)c1 [Example 46, 4-{[({(1-methyl-1H-tetrazol-5-yl)[3-(trifluoromethoxy)phenyl]methylene}amino)oxy]methyl}-1,3-thiazol-2-amine] | 2.1
22 | CN(C)c1cccc(C(=NOCc2cccc(NC(=O)C(F)(F)Oc3ccccc3)n2)c2nnnn2C)c1 [Example 30, N-(6-{[({[3-(dimethylamino)phenyl](1-methyl-1H-tetrazol-5-yl)methylene}amino)oxy]methyl}pyridin-2-yl)-2,2-difluoro-2-phenoxyacetamide] | 4.14
23 | Cn1nnnc1C(=NOCc1csc(NC(=O)COc2ccccc2)n1)c1cccc(OC(F)(F)F)c1 [Example 53, N-(4-{[({(1-methyl-1H-tetrazol-5-yl)[3-(trifluoromethoxy)phenyl]methylene}amino)oxy]methyl}-1,3-thiazol-2-yl)-2-phenoxyacetamide] | 3.99
24 | CN(C)c1cccc(C(=NOCc2cccc(N)n2)c2nnnn2C)c1 [Example 22, 6-{[({[3-(dimethylamino)phenyl](1-methyl-1H-tetrazol-5-yl)methylene}amino)oxy]methyl}pyridin-2-amine] | 1.19
25 | COCc1cccc(C(=NOCc2cccc(NC(=O)OC(C)(C)C)n2)c2nnnn2C)c1 [Example 32, tert-butyl (6-{[({[3-(methoxymethyl)phenyl](1-methyl-1H-tetrazol-5-yl)methylene}amino)oxy]methyl}pyridin-2-yl)carbamate] | 3.71
